ChEMBL document CHEMBL1132558, “A new single-photon emission computed tomography imaging agent for serotonin transporters: [123I]IDAM, 5-iodo-2-((2-((dimethylamino)methyl)phenyl)thio)benzyl alcohol” (J Med Chem, 1999)
pKi: −log10 of the molar value.

Key:
Rattus norvegicus [1] = organism: Rattus norvegicus; test: Concentration inhibiting norepinephrine uptake in rat brain synaptosomes.; assay type: functional
Rattus norvegicus [2] = organism: Rattus norvegicus; test: Concentration inhibiting serotonin uptake in rat brain synaptosomes.; assay type: functional
[3] = molecular target: T1, Sodium-dependent dopamine transporter (Homo sapiens, UniProt Q01959); test: In vitro binding affinity against Dopamine transporter in LLC-PK1 cell membranes.; assay type: cell-based, Sus scrofa
T1 sequence (Q01959 whole entry): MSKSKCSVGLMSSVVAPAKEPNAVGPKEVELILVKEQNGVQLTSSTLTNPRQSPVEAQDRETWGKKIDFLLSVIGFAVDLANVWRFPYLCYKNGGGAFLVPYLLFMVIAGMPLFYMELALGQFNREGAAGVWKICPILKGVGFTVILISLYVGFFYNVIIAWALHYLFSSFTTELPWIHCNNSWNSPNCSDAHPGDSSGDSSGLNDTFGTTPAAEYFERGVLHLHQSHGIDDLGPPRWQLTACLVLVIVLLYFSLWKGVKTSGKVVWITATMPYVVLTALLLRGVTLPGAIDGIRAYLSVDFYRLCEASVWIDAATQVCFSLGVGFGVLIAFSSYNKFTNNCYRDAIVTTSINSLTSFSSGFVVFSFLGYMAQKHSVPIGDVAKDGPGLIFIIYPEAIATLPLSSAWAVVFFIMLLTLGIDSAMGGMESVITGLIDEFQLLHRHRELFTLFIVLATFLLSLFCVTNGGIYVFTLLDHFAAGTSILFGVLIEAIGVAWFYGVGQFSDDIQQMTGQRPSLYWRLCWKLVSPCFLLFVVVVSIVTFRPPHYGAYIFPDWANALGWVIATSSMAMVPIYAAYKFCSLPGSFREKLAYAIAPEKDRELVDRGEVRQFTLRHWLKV

[4] = molecular target: Sodium-dependent serotonin transporter (Homo sapiens, UniProt P31645); test: In vitro binding affinity against Serotonin transporter (SERT) from LLC-PK1 cell membranes.; assay type: cell-based, Sus scrofa
Sodium-dependent serotonin transporter, sequence (P31645 whole entry): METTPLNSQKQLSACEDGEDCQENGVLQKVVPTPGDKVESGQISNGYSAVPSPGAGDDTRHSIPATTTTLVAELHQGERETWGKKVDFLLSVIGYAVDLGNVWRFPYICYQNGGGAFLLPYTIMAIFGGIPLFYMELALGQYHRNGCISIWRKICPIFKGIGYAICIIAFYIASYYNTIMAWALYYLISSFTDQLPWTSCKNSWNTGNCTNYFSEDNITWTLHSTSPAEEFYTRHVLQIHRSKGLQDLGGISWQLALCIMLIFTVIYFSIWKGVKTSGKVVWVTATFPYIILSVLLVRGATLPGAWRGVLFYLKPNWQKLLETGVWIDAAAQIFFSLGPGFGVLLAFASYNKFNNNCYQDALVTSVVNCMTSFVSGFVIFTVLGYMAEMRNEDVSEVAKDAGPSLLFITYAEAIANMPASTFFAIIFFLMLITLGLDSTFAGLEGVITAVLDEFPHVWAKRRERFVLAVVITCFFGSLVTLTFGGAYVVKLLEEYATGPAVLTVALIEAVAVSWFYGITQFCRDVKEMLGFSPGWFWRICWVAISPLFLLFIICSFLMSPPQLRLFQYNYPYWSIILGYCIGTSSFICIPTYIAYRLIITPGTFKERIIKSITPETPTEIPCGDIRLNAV

[5] = molecular target: T1, Sodium-dependent dopamine transporter; test: Concentration inhibiting Dopamine transporter
Rattus norvegicus [6] = organism: Rattus norvegicus; test: Concentration inhibiting 5-HT reuptake in rat brain synaptosomes.; assay type: functional

Row | SMILES | pKi (Rattus norvegicus [1]) | pKi (Rattus norvegicus [2]) | pKi [3] | pKi [4] | pKi [5] | pKi (Rattus norvegicus [6])
1 | CN(C)Cc1ccccc1Sc1ccc(Cl)cc1CO | 7.26 | 8.68 | – | – | – | –
2 | CN(C)Cc1ccccc1Sc1ccc(I)cc1CO | – | – | < 5.00 | 10.01 | – | –
3 | CN(C)Cc1ccccc1Sc1ccc(Br)cc1CO | – | – | < 5.00 | 9.28 | – | –
4 | CSc1ccc([C@H]2CN3CCC[C@H]3c3ccccc32)cc1 | – | – | 6.95 | – | 7.63 | 9.40
